Experimental findings from US20250313546A1, “NUCLEIC ACID BINDERS” (UNIVERSITY OF STRATHCLYDE, priority 2022, published 2025) are described below.

For orientation: MIC50 means the lowest concentration that inhibits either 50% of growth or 50% of the strains tested, depending on the study. Usually MIC99 stands for the lowest concentration that inhibits either 99% of growth or 99% of the strains tested, depending on the study. As usually defined, the pIC50 is −log10 of the IC50, conventionally taken in molar units.

Molecules are shown by their SMILES. pIC50: −log10 of the molar value. In brackets after ≈: the same amount, converted by molar mass.

One series has as its system C. auris. The series can be described thus: Expanded set of yeasts, MIC broth microdilution (CLSI). The class given is cell-based. The note with it: MIC at 50% inhibition; for MIC50: Candidozyma auris, isolate DI17-47. On the technique in general: Dilution methods test growth across graded concentrations, often in twofold steps.
Another series has as its system C. glabrata. Described as above. The note with it: Nakaseomyces glabratus, MIC at 50% inhibition. The class given is cell-based.
Another series has as its system C. albicans (ATCC 90028). The following applies: Candida albicans, ATCC90028, read-out: MIC99 C. albicans.
The next series has as its system A. flavus (CBS 128.202). The note with it: Aspergillus flavus, CBS128, read-out: MIC99 A. flavus.
For the next series, the system named is Aspergillus flavus. The series can be described thus: Expanded set of filamentous fungi, MIC broth microdilution (CLSI). The class given is cell-based. The note with it: MIC at 50% inhibition; for MIC50: Aspergillus flavus; for MIC50 Aspergillus flavus: isolate Aflav3.
The test system of a further series is Candida auris (H.17.157). The note with it: Candidozyma auris, read-out: MIC99 Candida auris.
The test system of series [1] is Fusarium oxysporum (F7098). The note with it: read-out: MIC99 Fusarium oxysporum.
Description: (§1) The Minimum Inhibitory Concentration (MIC, at 99% inhibition) of the compounds was determined using the broth microdilution method as recommended by EUCAST (EUCAST Definitive Document E.DEF 9.3.2, Method for the determination of broth dilution minimum inhibitory concentrations of antifungal agents for conidia forming moulds and EUCAST Definitive Document E.DEF 7.3.2 Method for the determination of broth dilution minimum inhibitory concentrations of antifungal agents for yeasts).
In the next series the test system is C. krusei. The series can be described thus: Expanded set of yeasts, MIC broth microdilution (CLSI). The class given is cell-based. The note with it: Pichia kudriavzevii, ATCC6258; isolate ATCC 6258; MIC at 50% inhibition.
For series [2], the system named is SARS-CoV-2 (hCoV-19/Australia/VIC01/2020). Description: SARS-CoV-2 microplaque inhibition assay in Vero-E6 cells. The class given is cell-based.
Series [3] in a line: In vivo pharmacokinetics mouse model (distribution and tolerability). Also noted: species or system male CD-1 mice. The method, then: The procedure used for in vivo pharmacokinetics experiments is described below.
1 mL of 2 mg/mL stock solution was prepared by adding 500 μL of DMSO to 2 mg of compound and vortexed well until the compound had fully dissolved. 500 μL of Saline for Injection (SFI, warmed to 37° C.) was added dropwise, under vortexing.
Working Solutions Immediately prior to dosing, the 2 mg/mL stock solution was diluted 1:5 to produce 0.4 mg/mL dosing solution. 2 mL of 0.4 mg/mL solution was prepared by adding 400 μL of […] stock solution to 1600 μL diluent (10% DMSO, 90% SFI).
The dosing solution was administered to 7 male CD-1 mice, at 5 mL/kg via intravenous (IV) injection (e.g. 30 g mouse with 150 μL). 3 mice were grouped for the blood sampling study and 4 mice were grouped for the tissue sampling study.
At each time point (0.5, 2, 4, 8 hours), 20 μL blood samples were collected from mice by tail prick into 20 μL EDTA blood collection capillary tubes on wet ice. 20 μL blood samples were added directly to the appropriate well of a 96 deep well plate and mixed with 20 μL of distilled water and the samples stored at −80° C. prior to bioanalysis.
At each time point (0.25 and 1 hour), the lung, both kidneys and the liver (left lateral lobe) were removed from culled mice (two per time point) and individually placed in pre-weighed bead beater tubes, which were then weighed to determine tissue weight. 4× weight/volume sterile water was added to the tissue. Tissues were homogenized in a Precellys bead beater then snap frozen at […] until bioanalysis.
Initial stock of Ia10 was made to 1 mg/mL in DMSO. Calibration and quality controls were made by spiking 1 mg/mL DMSO stock into desired matrix and serial dilution in matrix to desired concentration. Calibration range=1 ng/mL-5000 ng/mL. All samples were crashed out in 5× volume of Acetonitrile. Samples were centrifuged and supernatant diluted 1:3 in water to be analysed on LCMS.
Compound Ia10 has been evaluated in an in vivo pharmacokinetics mouse model in order to investigate compound distribution and tolerability.

[4] abbreviates: ATCC204304, isolate ATCC 204304.

Description for A. flavus (CBS 128.202): as §1
Description for C. albicans (ATCC 90028): as §1
Description for Candida auris (H.17.157): as §1

In the case of `C/N=C(\CCNC(=O)c1cc(NC(=O)c2cc(NC(=O)c3ccc(/C=C/c4ccc(N(C)C)cc4)nc3)cn2C)cn1C)NC` [Ia8, 6-((E)-4-(dimethylamino)styryl)-N-(1-methyl-5-((1-methyl-5-(((E)-3-(methylamino)-3-(methylimino)propyl)carbamoyl)-1H-pyrrol-3-yl)carbamoyl)-1H-pyrrol-3-yl)nicotinamide], the MIC50 with C. auris, against C. glabrata (isolate 05-62), against C. glabrata (isolate 05-761), in the series with C. glabrata (isolate CG3), against Aspergillus flavus (setting [4]) and against Aspergillus flavus (isolate Aflav2) was 1 to 8 µg/mL (≈ 1.64 to 13.1 µM) in each case. Moreover, the MIC50 against C. krusei fell in the range of 1 to 8 µg/mL (≈ 1.64 to 13.1 µM). For the same molecule, the “MIC50 C. auris” value against C. auris (isolate DI17-46) and with C. auris (isolate DI17-48) was “** (** means 1 μg/mL < MIC50 <= 8 μg/mL)” in each case. Besides, the MIC99 is 25 to 50 µg/mL (≈ 41 to 82 µM) in the series with C. albicans (ATCC 90028), less than 5 µg/mL in the series on A. flavus (CBS 128.202), more than 50 µg/mL with Candida auris (H.17.157) and less than 5 µg/mL in series [1]. For the same molecule, the “MIC50 Aspergillus flavus” value against Aspergillus flavus is listed as “** (** means 1 μg/mL < MIC50 <= 8 μg/mL)”.

Consider `[H]/N=C(\CCNC(=O)c1cc(NC(=O)c2cc(NC(=O)c3ccc(C=Cc4ccc(N(C)C)cc4)nc3)cn2C)cn1C)NC` [Ia9, (E)-6-(4-(dimethylamino)styryl)-N-(5-((5-((3-imino-3-(methylamino)propyl)carbamoyl)-1-methyl-1H-pyrrol-3-yl)carbamoyl)-1-methyl-1H-pyrrol-3-yl)nicotinamide], for which the MIC50 is 1 to 8 µg/mL (≈ 1.68 to 13.4 µM) against C. auris; 1 to 8 µg/mL (≈ 1.68 to 13.4 µM) against C. glabrata (isolate 05-62); not above 1 µg/mL against C. glabrata (isolate 05-761); 1 to 8 µg/mL (≈ 1.68 to 13.4 µM) with C. glabrata (isolate CG3); 1 to 8 µg/mL (≈ 1.68 to 13.4 µM) against Aspergillus flavus (setting [4]); 1 to 8 µg/mL (≈ 1.68 to 13.4 µM) with Aspergillus flavus (isolate Aflav2). The same molecule showed an MIC50 against C. krusei of 1 to 8 µg/mL (≈ 1.68 to 13.4 µM). The “MIC50 C. auris” value in the series on C. auris (isolate DI17-46) and against C. auris (isolate DI17-48) was “** (** means 1 μg/mL < MIC50 <= 8 μg/mL)” each time. The MIC99 in the series with C. albicans (ATCC 90028) was 5 to 25 µg/mL (≈ 8.39 to 42 µM); with A. flavus (CBS 128.202), 5 to 25 µg/mL (≈ 8.39 to 42 µM); in the series with Candida auris (H.17.157), more than 50 µg/mL; in [1], less than 5 µg/mL. Also, the “SARS-CoV-2 Selectivity Indices, Group” value in [2] (SI, IC50 (μM)/IC50 (μM), HEK293 cytotoxicity, Alkyl Amidines and NH Pyrroles) is “B (Group B: 4.1 < SI <= 10)”. In series [2] (Severe acute respiratory syndrome coronavirus 2, Vero C1008, plaque inhibition, Vero-E6 cells, read-out: IC50 SARS-CoV-2), the pIC50 was 5.10 to 5.70. Besides, the “MIC50 Aspergillus flavus” value with Aspergillus flavus is on record as “** (** means 1 μg/mL < MIC50 <= 8 μg/mL)”.

Turning to `C/N=C(/CCNC(=O)c1cc(NC(=O)c2cc(NC(=O)c3ccc(/C=C/c4cnc5ccccc5c4)cc3)cn2C)cn1C)NC` [Ia10, 1-methyl-4-(1-methyl-4-(4-((E)-2-(quinolin-3-yl)vinyl)benzamido)-1H-pyrrole-2-carboxamido)-N—((Z)-3-(methylamino)-3-(methylimino)propyl)-1H-pyrrole-2-carboxamide], the MIC50 in the series on C. auris is 1 to 8 µg/mL (≈ 1.62 to 13 µM); against C. glabrata (isolate 05-62) it was not above 1 µg/mL; against C. glabrata (isolate 05-761) it was not above 1 µg/mL; against C. glabrata (isolate CG3) it was not above 1 µg/mL; in the series on Aspergillus flavus (setting [4]), not above 1 µg/mL; against Aspergillus flavus (isolate Aflav2) it was not above 1 µg/mL. Moreover, the MIC50 in the series with C. krusei was not above 1 µg/mL. Further, the “MIC50 C. auris” value with C. auris (isolate DI17-46) and against C. auris (isolate DI17-48) was “** (** means 1 μg/mL < MIC50 <= 8 μg/mL)” in each case. For the same molecule, the MIC99 in the series on C. albicans (ATCC 90028) was 5 to 25 µg/mL (≈ 8.11 to 40.5 µM); with A. flavus (CBS 128.202) it was less than 5 µg/mL; in the series on Candida auris (H.17.157), 5 to 25 µg/mL (≈ 8.11 to 40.5 µM); in series [1] it was 5 to 25 µg/mL (≈ 8.11 to 40.5 µM). Further, the “MIC50 Aspergillus flavus” value against Aspergillus flavus is reported as “*** (*** means MIC50 <= 1 μg/mL)”. The “Blood conc @ 1 Hr” value in series [3] (2 mg/kg IV dose in mice, blood, 1 Hr) is 204 nM. Further, in series [3] (2 mg/kg IV dose in mice, lung, 1 Hr), the “Lung conc @ 1 Hr” value came to 28.968 µM. In series [3] (2 mg/kg IV in mice), the “Accumulation in lung tissue” value is reported as “remarkable accumulation in lung tissue”. Moreover, the Tolerability entry in series [3] (2 mg/kg IV in mice (higher doses were not investigated)) was “well tolerated”. The Kp at 1 h in series [3] (male, CD-1, mouse, lung vs whole blood, 2 mg/kg IV dose in mice, lung vs blood at 1 Hr, read-out: Lung accumulation factor) is approximately 142.
